Active and inactive are the calls of the source. The calls are words filed in the database; no cut-off is given here.
Test system: T1, Kinesin-like protein KIF11 (Homo sapiens), P52732 [D130V,A133D]
T1 sequence (whole entry): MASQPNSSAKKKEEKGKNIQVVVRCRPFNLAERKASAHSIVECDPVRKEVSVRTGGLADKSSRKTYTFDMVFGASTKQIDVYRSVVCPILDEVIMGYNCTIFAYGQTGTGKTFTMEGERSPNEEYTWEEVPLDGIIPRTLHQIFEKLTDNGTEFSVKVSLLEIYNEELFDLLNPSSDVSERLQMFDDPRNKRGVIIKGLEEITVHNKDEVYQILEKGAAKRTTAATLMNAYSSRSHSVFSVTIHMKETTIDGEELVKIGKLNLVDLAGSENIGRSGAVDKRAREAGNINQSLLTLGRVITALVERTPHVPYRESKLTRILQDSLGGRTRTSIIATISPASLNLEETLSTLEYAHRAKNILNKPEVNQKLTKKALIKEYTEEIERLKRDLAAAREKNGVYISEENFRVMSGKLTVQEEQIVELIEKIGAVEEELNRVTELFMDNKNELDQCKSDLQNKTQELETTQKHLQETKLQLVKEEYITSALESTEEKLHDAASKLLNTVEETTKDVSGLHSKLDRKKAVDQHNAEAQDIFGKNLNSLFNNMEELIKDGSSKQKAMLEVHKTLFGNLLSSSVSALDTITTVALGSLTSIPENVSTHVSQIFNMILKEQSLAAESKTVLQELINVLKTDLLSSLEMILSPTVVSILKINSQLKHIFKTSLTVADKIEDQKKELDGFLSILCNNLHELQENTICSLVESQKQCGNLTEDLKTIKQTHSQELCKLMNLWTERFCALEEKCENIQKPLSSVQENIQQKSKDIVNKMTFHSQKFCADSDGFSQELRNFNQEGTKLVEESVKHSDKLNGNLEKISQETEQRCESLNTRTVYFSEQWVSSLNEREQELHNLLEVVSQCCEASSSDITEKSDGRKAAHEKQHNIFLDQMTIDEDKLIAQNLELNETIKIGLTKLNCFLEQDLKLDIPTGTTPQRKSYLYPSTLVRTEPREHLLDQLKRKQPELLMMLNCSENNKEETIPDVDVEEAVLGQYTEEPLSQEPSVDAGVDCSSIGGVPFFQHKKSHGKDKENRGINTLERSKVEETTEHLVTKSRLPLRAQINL
Assay: Partial inhibition of MT-stimulated ATPase activity of Eg5 D130V/A133D (unknown origin)

For `Cc1ccc(C(=O)N(CCCN)[C@@H](c2oc3cc(Cl)ccc3c(=O)c2Cc2ccccc2)C(C)C)cc1`, the inhibition was “Active”.

From ChEMBL document CHEMBL2417374, “Resistance by allostery: a novel perspective for eg5-targeted drug design” (J Med Chem, 2013)
